Laboratory results reported in patent US11638716B2, “Compounds, compositions, and methods for the treatment of disease” (F-star Therapeutics, Inc., priority 2017, dated 2023).

Key:
[1] = biological target: T1, human wtSTING-CTD (with SUMO tag) (Homo sapiens, UniProt Q86WV6, H232R); test: Isothermal calorimetry against human wtSTING-CTD; type: binding; conditions: 25° C., 1.5 mM compound titrated against 132.5 μM protein
T1 construct: human wtSTING-CTD (with SUMO tag)
Procedure: Isothermal Calorimetry was carried out on a MicroCal Itc200 at 25° C.

THP1-STING KO cells = test: IRF activity in THP1-STING KO cells; type: cell-based; conditions: compound alone, 20 hours
RIG-I = test: IRF/NF-kB reporter cells testing the role of RIG-I; type: cell-based; conditions: 20 hours
Procedure: FIG. 28 depicts cells stably expressing both or either one of the reporters to measure IRF and NF-kB activity were treated with a range of concentrations of compound 4 or DMSO control for 20 hours. IRF activity was assessed using QUANTI-luc to measure levels of Lucia and NF-kB activity was determined by measure SEAP levels at 620-655 nm. % induction was calculated from fold change in luminescence/absorbance compared to DMSO treated sample. EC50 values are generated by curve fit in Xlfit.

[2] = test system: RAW-Lucia-ISG-STING KO cells; test: IRF-type I IFN secreted luciferase in RAW-Lucia-ISG-STING KO cells; type: cell-based; conditions: compound alone, 19 hours
Procedure: FIG. 4 depicts RAW-Lucia-ISG-WT and RAW-Lucia-ISG-STING KO cells were stimulated with compound 2 or compound 4, alone for 19 hours. Activity of secreted luciferase (IRF-type I IFN activity) in cell culture supernatant was measured using Invivogen's Quanti-luc. Data is shown as fold induction over DMSO treated cells (mean±standard deviation of triplicate wells per stimulant). EC50 values were calculated using XLfit.

IRF = IRF signaling reporter (Lucia), compound 4 and diastereomers; type: cell-based; conditions: 20 hours
Procedure: Cells were treated with various concentrations of […] and two of its diastereomers (4-A and 4-B), or DMSO control for 20 hours. Cells stably expressed one or both of the reporters used to measure IRF activity. IRF activity was assessed using QUANTI-luc to measure levels of Lucia. % induction was calculated from fold change in luminescence/absorbance compared to DMSO treated sample.
Cells were treated with various concentrations of compound 4 and two of its diastereomers (4-A and 4-B), or DMSO control for 20 hours. Cells stably expressed one or both of the reporters used to measure IRF activity. IRF activity was assessed using QUANTI-luc to measure levels of Lucia. % induction was calculated from fold change in luminescence/absorbance compared to DMSO treated sample.

T1 sequence (Q86WV6 135-379 H232R): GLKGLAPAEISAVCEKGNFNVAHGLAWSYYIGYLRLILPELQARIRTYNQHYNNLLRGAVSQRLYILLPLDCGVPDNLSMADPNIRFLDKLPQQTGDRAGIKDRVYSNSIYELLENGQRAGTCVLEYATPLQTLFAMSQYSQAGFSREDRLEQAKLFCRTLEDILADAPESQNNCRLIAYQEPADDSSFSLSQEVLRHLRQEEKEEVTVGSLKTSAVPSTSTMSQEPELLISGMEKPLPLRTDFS

Compound | binding to STING (isothermal calorimetry) [1] | IRF activity in THP1-STING KO cells (THP1-STING KO cells) | involvement of RIG-I in the mechanism of action (RIG-I) | IRF activity in STING KO cells [2] | IRF signaling induction (IRF; FIG. 34A) | IRF signaling induction (IRF; FIG. 34C)
N.N.Nc1ncnc2c1ncn2[C@@H]1O[C@@H]2COP(=O)(S)O[C@@H]3[C@H](F)[C@@H](COP(=O)(O)O[C@H]2[C@H]1F)O[C@H]3n1ccc(=O)[nH]c1=O (stereo partly drawn) [Compound 3] | bind to STING with high affinity |  |  |  |  | 
CCCCCCCCCCOc1ccc(C(=O)Oc2ccc(CSP3(=O)OC[C@H]4O[C@@H](n5cnc6c(N)ncnc65)[C@H](F)[C@@H]4OP(=O)(O)OC[C@H]4O[C@@H](n5ccc(=O)[nH]c5=O)[C@H](O3)[C@@H]4F)cc2)cc1 (stereo partly drawn) [Compound 4] |  | did not induced IRF activity | not implicated | Neither compound induced IRF activity | efficacious in inducing IRF signaling | efficacious in inducing IRF signaling
